Laboratory results from patent publication US20250353891A1 (MEDIMMUNE LIMITED, priority 2022, published 2025).
Starred links: 1 amine or outer side, 2 acyl side, 3 side chain; linkers in the order of their positions; H or OH if unused. Non-standard residues stand in square brackets, D forms with d. Residues, ends and D or L forms follow the SMILES beside them. Groups on a side chain read outwards from the residue. *: point of attachment. C20 diacid = O=C(O)CCCCCCCCCCCCCCCCCCC(=O)*; C18 diacid = O=C(O)CCCCCCCCCCCCCCCCC(=O)*; γGlu = O=C(O)[C@H](CCC(=O)[*:2])N[*:1]; αMeF = C[C@](N)(Cc1ccccc1)C(=O)O; AEEA = NCCOCCOCC(=O)O; Aib = CC(C)(N)C(=O)O

What was measured:
[1] = target: human glucagon receptor (hGCGR) (Homo sapiens, UniProt P47871); test: cAMP production (HTRF) in CHO cells expressing hGCGR; assay type: cell-based; set-up: expressed in transfected cells; conditions: Table 7, peptides modified at position 20; cAMP in CHO hGCGR cells; geometric mean; read-out: hGluc-R EC50
Procedure, shortened: (§1)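 Cells were resuspended in assay buffer at batch-optimized density, typically 1×10^5 cells/mL for hGLP-1R and 2×10^5 cells/mL for hGCGR. After 30 min incubation at room temperature with compound, cAMP was measured by two-step HTRF. EC50 values came from 4-parameter logistic fits of % Delta F.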

[2] = target: human GLP-1 receptor (hGLP-1R) (Homo sapiens, UniProt P43220); test: cAMP production (HTRF) in CHO cells expressing hGLP-1R; assay type: cell-based; set-up: expressed in transfected cells; conditions: for EC50: Table 7, peptides modified at position 20, cAMP in CHO hGLP-1R cells, geometric mean, read-out: hGLP-1R EC50; for % Relative Potency Ratio: Table 7, % GLP-1R activity relative to GLP-1 / % GlucR activity relative to glucagon
Procedure, shortened: as §1

Chain of human glucagon receptor (hGCGR) (P47871 26-477): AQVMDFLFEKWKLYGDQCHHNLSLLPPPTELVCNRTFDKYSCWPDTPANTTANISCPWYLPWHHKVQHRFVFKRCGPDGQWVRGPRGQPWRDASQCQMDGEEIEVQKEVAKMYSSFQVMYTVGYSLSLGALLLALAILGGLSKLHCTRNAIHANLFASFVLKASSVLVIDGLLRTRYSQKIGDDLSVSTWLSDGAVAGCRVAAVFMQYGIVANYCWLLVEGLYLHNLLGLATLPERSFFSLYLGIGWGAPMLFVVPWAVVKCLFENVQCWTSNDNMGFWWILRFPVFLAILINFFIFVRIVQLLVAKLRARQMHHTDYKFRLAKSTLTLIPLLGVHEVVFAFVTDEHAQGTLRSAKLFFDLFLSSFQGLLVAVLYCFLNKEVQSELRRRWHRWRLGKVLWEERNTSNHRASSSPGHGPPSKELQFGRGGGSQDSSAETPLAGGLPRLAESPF
Chain of human GLP-1 receptor (hGLP-1R) (P43220 24-463): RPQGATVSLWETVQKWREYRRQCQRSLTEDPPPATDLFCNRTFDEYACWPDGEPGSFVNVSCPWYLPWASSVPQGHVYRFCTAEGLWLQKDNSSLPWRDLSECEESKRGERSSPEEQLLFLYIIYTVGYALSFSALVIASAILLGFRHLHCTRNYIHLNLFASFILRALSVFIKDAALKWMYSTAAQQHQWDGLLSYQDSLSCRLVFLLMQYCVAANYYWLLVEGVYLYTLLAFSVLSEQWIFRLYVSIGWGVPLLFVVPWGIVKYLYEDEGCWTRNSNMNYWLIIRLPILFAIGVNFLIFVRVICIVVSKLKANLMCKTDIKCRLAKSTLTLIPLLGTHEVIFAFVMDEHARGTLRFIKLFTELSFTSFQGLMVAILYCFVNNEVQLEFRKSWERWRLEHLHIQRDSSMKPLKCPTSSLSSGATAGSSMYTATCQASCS

EC50 [1] | EC50 [2] | % Relative Potency Ratio [2] | SMILES
0.175 nM | 0.111 nM | 3.1 | CC[C@H](C)[C@H](NC(=O)C(C)(C)NC(=O)[C@H](CCC(N)=O)NC(=O)[C@@H](NC(=O)[C@](C)(Cc1ccccc1)NC(=O)[C@H](CC(=O)O)NC(=O)[C@H](CCCCNC(=O)CC[C@H](NC(=O)CC[C@H](NC(=O)CCCCCCCCCCCCCCCCCCC(=O)O)C(=O)O)C(=O)O)NC(=O)[C@H](C)NC(=O)[C@H](C)NC(=O)[C@H](CCCNC(=N)N)NC(=O)[C@H](CO)NC(=O)[C@H](CC(=O)O)NC(=O)[C@H](CC(C)C)NC(=O)[C@](C)(Cc1ccccc1)NC(=O)[C@H](CCCCN)NC(=O)[C@H](CO)NC(=O)[C@@H](NC(=O)[C@H](CC(=O)O)NC(=O)[C@H](CO)NC(=O)[C@@H](NC(=O)[C@](C)(Cc1ccccc1)NC(=O)[C@H](CO)NC(=O)CNC(=O)[C@H](Cc1c[nH]cn1)NC(=O)C(C)(C)NC(=O)[C@@H](N)Cc1c[nH]cn1)[C@@H](C)O)C(C)C)C(C)C)C(=O)N[C@@H](C)C(=O)N[C@@H](CC(N)=O)C(=O)N[C@H](C(N)=O)[C@@H](C)O [Peptide 275] (H-H[Aib]HGS[αMeF]TSDVSK[αMeF]LDSRAAK([γGlu-γGlu-C20 diacid])D[αMeF]VQ[Aib]IANT-NH2)
0.0914 nM | 0.143 nM | 1.3 | CC[C@H](C)[C@H](NC(=O)C(C)(C)NC(=O)[C@H](CCC(N)=O)NC(=O)[C@@H](NC(=O)[C@](C)(Cc1ccccc1)NC(=O)[C@H](CC(=O)O)NC(=O)[C@H](CCCCNC(=O)CC[C@H](NC(=O)CCCCCCCCCCCCCCCCCCC(=O)O)C(=O)O)NC(=O)[C@H](C)NC(=O)[C@H](C)NC(=O)[C@H](CCCNC(=N)N)NC(=O)[C@H](CO)NC(=O)[C@H](CC(=O)O)NC(=O)[C@H](CC(C)C)NC(=O)[C@](C)(Cc1ccccc1)NC(=O)[C@H](CCCCN)NC(=O)[C@H](CO)NC(=O)[C@@H](NC(=O)[C@H](CC(=O)O)NC(=O)[C@H](CO)NC(=O)[C@@H](NC(=O)[C@](C)(Cc1ccccc1)NC(=O)[C@H](CO)NC(=O)CNC(=O)[C@H](Cc1c[nH]cn1)NC(=O)C(C)(C)NC(=O)[C@@H](N)Cc1c[nH]cn1)[C@@H](C)O)C(C)C)C(C)C)C(=O)N[C@@H](C)C(=O)N[C@@H](CC(N)=O)C(=O)N[C@H](C(N)=O)[C@@H](C)O [Peptide 276] (H-H[Aib]HGS[αMeF]TSDVSK[αMeF]LDSRAAK([γGlu-C20 diacid])D[αMeF]VQ[Aib]IANT-NH2)
0.0573 nM | 0.0495 nM | 2.3 | CC[C@H](C)[C@H](NC(=O)C(C)(C)NC(=O)[C@H](CCC(N)=O)NC(=O)[C@@H](NC(=O)[C@](C)(Cc1ccccc1)NC(=O)[C@H](CC(=O)O)NC(=O)[C@H](CCCCNC(=O)COCCOCCNC(=O)COCCOCCNC(=O)CCCCCCCCCCCCCCCCCCC(=O)O)NC(=O)[C@H](C)NC(=O)[C@H](C)NC(=O)[C@H](CCCNC(=N)N)NC(=O)[C@H](CO)NC(=O)[C@H](CC(=O)O)NC(=O)[C@H](CC(C)C)NC(=O)[C@](C)(Cc1ccccc1)NC(=O)[C@H](CCCCN)NC(=O)[C@H](CO)NC(=O)[C@@H](NC(=O)[C@H](CC(=O)O)NC(=O)[C@H](CO)NC(=O)[C@@H](NC(=O)[C@](C)(Cc1ccccc1)NC(=O)[C@H](CO)NC(=O)CNC(=O)[C@H](Cc1c[nH]cn1)NC(=O)C(C)(C)NC(=O)[C@@H](N)Cc1c[nH]cn1)[C@@H](C)O)C(C)C)C(C)C)C(=O)N[C@@H](C)C(=O)N[C@@H](CC(N)=O)C(=O)N[C@H](C(N)=O)[C@@H](C)O [Peptide 277] (H-H[Aib]HGS[αMeF]TSDVSK[αMeF]LDSRAAK([AEEA-AEEA-C20 diacid])D[αMeF]VQ[Aib]IANT-NH2)
0.0835 nM | 0.0789 nM | 2.1 | CC[C@H](C)[C@H](NC(=O)C(C)(C)NC(=O)[C@H](CCC(N)=O)NC(=O)[C@@H](NC(=O)[C@](C)(Cc1ccccc1)NC(=O)[C@H](CC(=O)O)NC(=O)[C@H](CCCCNC(=O)COCCOCCNC(=O)CCCCCCCCCCCCCCCCCCC(=O)O)NC(=O)[C@H](C)NC(=O)[C@H](C)NC(=O)[C@H](CCCNC(=N)N)NC(=O)[C@H](CO)NC(=O)[C@H](CC(=O)O)NC(=O)[C@H](CC(C)C)NC(=O)[C@](C)(Cc1ccccc1)NC(=O)[C@H](CCCCN)NC(=O)[C@H](CO)NC(=O)[C@@H](NC(=O)[C@H](CC(=O)O)NC(=O)[C@H](CO)NC(=O)[C@@H](NC(=O)[C@](C)(Cc1ccccc1)NC(=O)[C@H](CO)NC(=O)CNC(=O)[C@H](Cc1c[nH]cn1)NC(=O)C(C)(C)NC(=O)[C@@H](N)Cc1c[nH]cn1)[C@@H](C)O)C(C)C)C(C)C)C(=O)N[C@@H](C)C(=O)N[C@@H](CC(N)=O)C(=O)N[C@H](C(N)=O)[C@@H](C)O [Peptide 278] (H-H[Aib]HGS[αMeF]TSDVSK[αMeF]LDSRAAK([AEEA-C20 diacid])D[αMeF]VQ[Aib]IANT-NH2)
0.15 nM | 0.0865 nM | 3.4 | CC[C@H](C)[C@H](NC(=O)C(C)(C)NC(=O)[C@H](CCC(N)=O)NC(=O)[C@@H](NC(=O)[C@](C)(Cc1ccccc1)NC(=O)[C@H](CC(=O)O)NC(=O)[C@H](CCCCNC(=O)COCCOCCNC(=O)CC[C@H](NC(=O)CC[C@H](NC(=O)CCCCCCCCCCCCCCCCCCC(=O)O)C(=O)O)C(=O)O)NC(=O)[C@H](C)NC(=O)[C@H](C)NC(=O)[C@H](CCCNC(=N)N)NC(=O)[C@H](CO)NC(=O)[C@H](CC(=O)O)NC(=O)[C@H](CC(C)C)NC(=O)[C@](C)(Cc1ccccc1)NC(=O)[C@H](CCCCN)NC(=O)[C@H](CO)NC(=O)[C@@H](NC(=O)[C@H](CC(=O)O)NC(=O)[C@H](CO)NC(=O)[C@@H](NC(=O)[C@](C)(Cc1ccccc1)NC(=O)[C@H](CO)NC(=O)CNC(=O)[C@H](Cc1c[nH]cn1)NC(=O)C(C)(C)NC(=O)[C@@H](N)Cc1c[nH]cn1)[C@@H](C)O)C(C)C)C(C)C)C(=O)N[C@@H](C)C(=O)N[C@@H](CC(N)=O)C(=O)N[C@H](C(N)=O)[C@@H](C)O [Peptide 279] (H-H[Aib]HGS[αMeF]TSDVSK[αMeF]LDSRAAK([AEEA-γGlu-γGlu-C20 diacid])D[αMeF]VQ[Aib]IANT-NH2)
0.155 nM | 0.0783 nM | 3.9 | CC[C@H](C)[C@H](NC(=O)C(C)(C)NC(=O)[C@H](CCC(N)=O)NC(=O)[C@@H](NC(=O)[C@](C)(Cc1ccccc1)NC(=O)[C@H](CC(=O)O)NC(=O)[C@H](CCCCNC(=O)COCCOCCNC(=O)COCCOCCNC(=O)CC[C@H](NC(=O)CCCCCCCCCCCCCCCCCCC(=O)O)C(=O)O)NC(=O)[C@H](C)NC(=O)[C@H](C)NC(=O)[C@H](CCCNC(=N)N)NC(=O)[C@H](CO)NC(=O)[C@H](CC(=O)O)NC(=O)[C@H](CC(C)C)NC(=O)[C@](C)(Cc1ccccc1)NC(=O)[C@H](CCCCN)NC(=O)[C@H](CO)NC(=O)[C@@H](NC(=O)[C@H](CC(=O)O)NC(=O)[C@H](CO)NC(=O)[C@@H](NC(=O)[C@](C)(Cc1ccccc1)NC(=O)[C@H](CO)NC(=O)CNC(=O)[C@H](Cc1c[nH]cn1)NC(=O)C(C)(C)NC(=O)[C@@H](N)Cc1c[nH]cn1)[C@@H](C)O)C(C)C)C(C)C)C(=O)N[C@@H](C)C(=O)N[C@@H](CC(N)=O)C(=O)N[C@H](C(N)=O)[C@@H](C)O [Peptide 280] (H-H[Aib]HGS[αMeF]TSDVSK[αMeF]LDSRAAK([AEEA-AEEA-γGlu-C20 diacid])D[αMeF]VQ[Aib]IANT-NH2)
1.04 nM | 0.155 nM | 13.3 | CC[C@H](C)[C@H](NC(=O)C(C)(C)NC(=O)[C@H](CCC(N)=O)NC(=O)[C@@H](NC(=O)[C@](C)(Cc1ccccc1)NC(=O)[C@H](CC(=O)O)NC(=O)[C@H](CCCCNC(=O)COCCOCCNC(=O)COCCOCCNC(=O)CC[C@H](NC(=O)CC[C@H](NC(=O)CCCCCCCCCCCCCCCCCCC(=O)O)C(=O)O)C(=O)O)NC(=O)[C@H](C)NC(=O)[C@H](C)NC(=O)[C@H](CCCNC(=N)N)NC(=O)[C@H](CO)NC(=O)[C@H](CC(=O)O)NC(=O)[C@H](CC(C)C)NC(=O)[C@](C)(Cc1ccccc1)NC(=O)[C@H](CCCCN)NC(=O)[C@H](CO)NC(=O)[C@@H](NC(=O)[C@H](CC(=O)O)NC(=O)[C@H](CO)NC(=O)[C@@H](NC(=O)[C@](C)(Cc1ccccc1)NC(=O)[C@H](CO)NC(=O)CNC(=O)[C@H](Cc1c[nH]cn1)NC(=O)[C@H](CO)NC(=O)[C@@H](N)Cc1c[nH]cn1)[C@@H](C)O)C(C)C)C(C)C)C(=O)N[C@@H](C)C(=O)N[C@@H](CC(N)=O)C(=O)N[C@H](C(N)=O)[C@@H](C)O [Peptide 281] (H-HSHGS[αMeF]TSDVSK[αMeF]LDSRAAK([AEEA-AEEA-γGlu-γGlu-C20 diacid])D[αMeF]VQ[Aib]IANT-NH2)
0.119 nM | 0.0434 nM | 5.4 | CC[C@H](C)[C@H](NC(=O)C(C)(C)NC(=O)[C@H](CCC(N)=O)NC(=O)[C@@H](NC(=O)[C@](C)(Cc1ccccc1)NC(=O)[C@H](CC(=O)O)NC(=O)[C@H](CCCCNC(=O)COCCOCCNC(=O)COCCOCCNC(=O)CC[C@H](NC(=O)CCCCCCCCCCCCCCCCC(=O)O)C(=O)O)NC(=O)[C@H](C)NC(=O)[C@H](C)NC(=O)[C@H](CCCNC(=N)N)NC(=O)[C@H](CO)NC(=O)[C@H](CC(=O)O)NC(=O)[C@H](CC(C)C)NC(=O)[C@](C)(Cc1ccccc1)NC(=O)[C@H](CCCCN)NC(=O)[C@H](CO)NC(=O)[C@@H](NC(=O)[C@H](CC(=O)O)NC(=O)[C@H](CO)NC(=O)[C@@H](NC(=O)[C@](C)(Cc1ccccc1)NC(=O)[C@H](CO)NC(=O)CNC(=O)[C@H](Cc1c[nH]cn1)NC(=O)[C@H](CO)NC(=O)[C@@H](N)Cc1c[nH]cn1)[C@@H](C)O)C(C)C)C(C)C)C(=O)N[C@@H](C)C(=O)N[C@@H](CC(N)=O)C(=O)N[C@H](C(N)=O)[C@@H](C)O [Peptide 284] (H-HSHGS[αMeF]TSDVSK[αMeF]LDSRAAK([AEEA-AEEA-γGlu-C18 diacid])D[αMeF]VQ[Aib]IANT-NH2)
